ChEMBL document CHEMBL1795227, “Methanesulfonamido-cyclohexylamine derivatives of 2,4-diaminopyrimidine as potent ALK inhibitors” (Bioorg Med Chem Lett, 2011)
pIC50: −log10 of the molar value.

Legend:
[1] = molecular target: T1, ALK tyrosine kinase receptor (Homo sapiens, UniProt Q9UM73); assay: Inhibition of ALK
Target sequence in this assay (Q9UM73 whole entry): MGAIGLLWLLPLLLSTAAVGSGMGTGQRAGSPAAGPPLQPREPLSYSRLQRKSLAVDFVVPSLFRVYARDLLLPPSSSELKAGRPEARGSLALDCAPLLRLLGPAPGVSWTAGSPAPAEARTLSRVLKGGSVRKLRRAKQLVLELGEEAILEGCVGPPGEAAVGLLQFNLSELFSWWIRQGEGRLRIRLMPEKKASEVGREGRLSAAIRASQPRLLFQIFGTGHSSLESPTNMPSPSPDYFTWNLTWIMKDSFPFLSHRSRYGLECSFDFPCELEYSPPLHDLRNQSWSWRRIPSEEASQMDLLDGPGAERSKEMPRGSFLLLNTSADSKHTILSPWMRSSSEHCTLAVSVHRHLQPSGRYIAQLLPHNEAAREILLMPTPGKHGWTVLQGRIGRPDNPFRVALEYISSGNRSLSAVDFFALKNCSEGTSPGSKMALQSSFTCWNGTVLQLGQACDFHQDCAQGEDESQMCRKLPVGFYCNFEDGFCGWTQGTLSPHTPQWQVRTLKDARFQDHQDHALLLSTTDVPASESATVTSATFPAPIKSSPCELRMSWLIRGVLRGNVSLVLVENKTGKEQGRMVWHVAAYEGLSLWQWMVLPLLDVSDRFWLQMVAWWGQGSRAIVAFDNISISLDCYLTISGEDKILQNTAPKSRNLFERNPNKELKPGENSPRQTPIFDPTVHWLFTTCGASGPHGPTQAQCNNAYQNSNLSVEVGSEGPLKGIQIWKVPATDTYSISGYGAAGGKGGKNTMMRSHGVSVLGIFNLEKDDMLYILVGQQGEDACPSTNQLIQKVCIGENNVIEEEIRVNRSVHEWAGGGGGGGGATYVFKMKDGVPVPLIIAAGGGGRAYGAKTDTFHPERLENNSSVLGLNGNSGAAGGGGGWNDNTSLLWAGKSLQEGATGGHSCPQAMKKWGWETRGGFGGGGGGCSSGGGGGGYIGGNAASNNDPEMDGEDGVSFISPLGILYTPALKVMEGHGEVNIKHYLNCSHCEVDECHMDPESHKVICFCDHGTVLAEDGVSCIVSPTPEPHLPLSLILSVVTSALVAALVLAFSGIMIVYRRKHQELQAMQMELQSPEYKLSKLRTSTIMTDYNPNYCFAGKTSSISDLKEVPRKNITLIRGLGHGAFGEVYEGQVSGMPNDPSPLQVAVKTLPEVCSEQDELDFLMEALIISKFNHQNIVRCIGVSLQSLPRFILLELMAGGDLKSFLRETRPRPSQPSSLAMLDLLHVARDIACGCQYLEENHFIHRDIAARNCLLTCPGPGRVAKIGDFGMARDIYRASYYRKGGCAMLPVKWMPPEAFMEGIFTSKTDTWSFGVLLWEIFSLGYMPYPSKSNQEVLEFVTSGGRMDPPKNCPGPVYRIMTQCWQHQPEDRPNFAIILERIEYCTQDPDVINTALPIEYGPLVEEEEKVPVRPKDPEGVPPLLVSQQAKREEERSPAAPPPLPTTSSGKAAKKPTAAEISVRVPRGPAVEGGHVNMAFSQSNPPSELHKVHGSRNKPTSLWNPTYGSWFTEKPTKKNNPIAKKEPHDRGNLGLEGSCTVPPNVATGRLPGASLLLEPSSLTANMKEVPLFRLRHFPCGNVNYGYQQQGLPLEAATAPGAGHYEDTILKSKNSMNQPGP

[2] = molecular target: T1, ALK tyrosine kinase receptor; assay: Inhibition of autophosphorylation of NPM-ALK in human Karpas-299 cells; type: cell-based
Target sequence in this assay (Q9UM73 19-1620 limits assumed): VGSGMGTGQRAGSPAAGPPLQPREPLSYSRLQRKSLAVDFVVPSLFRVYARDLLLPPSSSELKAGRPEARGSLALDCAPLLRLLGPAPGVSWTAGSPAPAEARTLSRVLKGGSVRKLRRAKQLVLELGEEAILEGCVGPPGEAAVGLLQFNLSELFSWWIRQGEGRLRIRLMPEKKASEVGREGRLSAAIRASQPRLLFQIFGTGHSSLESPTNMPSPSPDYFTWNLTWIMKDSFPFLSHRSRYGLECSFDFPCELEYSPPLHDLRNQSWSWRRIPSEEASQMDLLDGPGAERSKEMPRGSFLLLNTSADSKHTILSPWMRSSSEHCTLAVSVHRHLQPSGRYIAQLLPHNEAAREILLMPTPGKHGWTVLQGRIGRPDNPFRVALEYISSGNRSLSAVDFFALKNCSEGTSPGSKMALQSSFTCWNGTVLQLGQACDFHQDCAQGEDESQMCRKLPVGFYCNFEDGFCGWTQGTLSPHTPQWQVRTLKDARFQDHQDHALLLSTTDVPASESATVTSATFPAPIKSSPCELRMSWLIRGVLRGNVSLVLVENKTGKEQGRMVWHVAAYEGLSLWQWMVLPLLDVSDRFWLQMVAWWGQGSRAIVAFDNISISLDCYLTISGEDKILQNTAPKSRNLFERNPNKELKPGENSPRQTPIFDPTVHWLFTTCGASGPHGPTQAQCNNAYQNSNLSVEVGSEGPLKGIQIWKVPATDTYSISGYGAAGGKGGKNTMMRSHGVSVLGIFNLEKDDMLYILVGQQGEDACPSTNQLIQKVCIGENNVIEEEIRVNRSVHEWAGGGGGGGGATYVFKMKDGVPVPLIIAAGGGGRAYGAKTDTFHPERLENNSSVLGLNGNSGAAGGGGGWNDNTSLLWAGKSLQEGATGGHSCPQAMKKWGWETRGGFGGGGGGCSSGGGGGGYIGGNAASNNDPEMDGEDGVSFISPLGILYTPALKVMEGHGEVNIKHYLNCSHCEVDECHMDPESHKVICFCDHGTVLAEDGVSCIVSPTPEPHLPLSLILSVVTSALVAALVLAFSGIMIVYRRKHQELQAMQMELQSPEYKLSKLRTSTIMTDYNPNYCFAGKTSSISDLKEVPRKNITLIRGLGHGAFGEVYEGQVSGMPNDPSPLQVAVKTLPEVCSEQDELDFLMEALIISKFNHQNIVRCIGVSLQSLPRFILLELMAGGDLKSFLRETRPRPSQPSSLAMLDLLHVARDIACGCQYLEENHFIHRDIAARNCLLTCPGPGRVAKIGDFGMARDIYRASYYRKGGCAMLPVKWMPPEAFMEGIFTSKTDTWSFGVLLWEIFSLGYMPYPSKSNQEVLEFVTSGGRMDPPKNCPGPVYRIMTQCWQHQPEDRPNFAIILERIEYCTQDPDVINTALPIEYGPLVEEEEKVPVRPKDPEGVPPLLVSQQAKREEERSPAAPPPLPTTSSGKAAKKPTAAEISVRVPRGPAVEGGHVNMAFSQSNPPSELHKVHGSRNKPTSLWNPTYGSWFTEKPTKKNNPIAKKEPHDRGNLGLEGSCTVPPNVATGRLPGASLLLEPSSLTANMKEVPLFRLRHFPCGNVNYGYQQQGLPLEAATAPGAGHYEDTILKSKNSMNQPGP

[3] = molecular target: Insulin receptor (Homo sapiens, UniProt P06213); assay: Inhibition of IR
Insulin receptor, sequence (P06213 28-758 limits assumed): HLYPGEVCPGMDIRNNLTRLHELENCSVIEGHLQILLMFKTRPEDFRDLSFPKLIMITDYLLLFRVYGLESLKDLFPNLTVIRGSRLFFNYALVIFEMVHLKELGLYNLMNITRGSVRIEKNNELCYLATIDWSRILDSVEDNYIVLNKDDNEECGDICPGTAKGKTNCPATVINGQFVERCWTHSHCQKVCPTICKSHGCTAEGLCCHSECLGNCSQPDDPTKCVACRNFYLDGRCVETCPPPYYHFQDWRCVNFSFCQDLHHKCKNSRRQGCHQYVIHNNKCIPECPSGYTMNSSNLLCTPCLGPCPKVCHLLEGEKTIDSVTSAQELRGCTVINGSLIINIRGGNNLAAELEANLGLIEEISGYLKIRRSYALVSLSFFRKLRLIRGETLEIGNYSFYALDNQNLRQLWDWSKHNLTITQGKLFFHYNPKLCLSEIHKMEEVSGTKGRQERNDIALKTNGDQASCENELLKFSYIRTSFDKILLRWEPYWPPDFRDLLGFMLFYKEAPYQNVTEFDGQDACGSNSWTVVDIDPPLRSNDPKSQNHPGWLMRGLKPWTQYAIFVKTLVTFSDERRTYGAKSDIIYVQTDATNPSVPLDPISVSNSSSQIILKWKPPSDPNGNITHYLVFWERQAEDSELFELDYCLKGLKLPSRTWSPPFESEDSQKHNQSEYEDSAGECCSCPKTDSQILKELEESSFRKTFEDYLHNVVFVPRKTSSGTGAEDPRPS
Insulin receptor, sequence (P06213 763-1382 limits assumed): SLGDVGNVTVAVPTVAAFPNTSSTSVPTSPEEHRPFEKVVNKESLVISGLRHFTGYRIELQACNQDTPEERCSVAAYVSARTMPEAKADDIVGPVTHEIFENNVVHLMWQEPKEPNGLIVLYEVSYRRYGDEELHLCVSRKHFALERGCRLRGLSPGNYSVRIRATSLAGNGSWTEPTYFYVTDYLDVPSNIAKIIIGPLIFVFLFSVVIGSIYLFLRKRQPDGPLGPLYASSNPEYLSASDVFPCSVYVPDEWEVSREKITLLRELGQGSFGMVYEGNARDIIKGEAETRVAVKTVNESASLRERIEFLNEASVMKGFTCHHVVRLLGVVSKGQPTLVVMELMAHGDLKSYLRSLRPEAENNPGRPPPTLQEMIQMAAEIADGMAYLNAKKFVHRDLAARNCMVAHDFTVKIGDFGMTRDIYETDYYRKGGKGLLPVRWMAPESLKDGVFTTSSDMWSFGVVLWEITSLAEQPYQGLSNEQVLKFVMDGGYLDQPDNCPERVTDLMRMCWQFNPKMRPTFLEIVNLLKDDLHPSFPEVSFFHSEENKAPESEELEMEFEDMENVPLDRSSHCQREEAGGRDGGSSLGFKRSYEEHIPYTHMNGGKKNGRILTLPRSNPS

Row | SMILES | pIC50 [1] | pIC50 [2] | pIC50 [3]
1 | CCN1CCc2ccc(Nc3ncc(Cl)c(N[C@@H]4CCCC[C@H]4NS(C)(=O)=O)n3)cc2CC1 | 8.05 | 7.22 | 6.04
2 | COc1cc(N2CCOCC2)ccc1Nc1ncc(Cl)c(N[C@@H]2CCCC[C@H]2NS(C)(=O)=O)n1 | 8.00 | 7.19 | 5.77
3 | COCCN1CCc2ccc(Nc3ncc(Cl)c(N[C@@H]4CCCC[C@H]4NC(=O)C(F)(F)F)n3)cc2CC1 | 7.66 | 7.00 | 6.15
4 | COCCN1CCc2ccc(Nc3ncc(Cl)c(N[C@@H]4CCCC[C@H]4O)n3)cc2CC1 (racemic) | < 5.52 | – | –
5 | CCS(=O)(=O)N[C@@H]1CCCC[C@H]1Nc1nc(Nc2ccc3c(c2)CCN(CCOC)CC3)ncc1Cl | 7.30 | – | 6.03
6 | COCCN1CCc2ccc(Nc3ncc(Cl)c(N[C@@H]4CCC[C@H](NS(C)(=O)=O)C4)n3)cc2CC1 (racemic) | < 5.52 | – | –
7 | COCCN1CCc2ccc(Nc3ncc(Cl)c(N[C@@H]4CCC[C@@H](NS(C)(=O)=O)C4)n3)cc2CC1 (racemic) | < 5.52 | – | –
8 | CCN([C@@H]1CCCC[C@H]1Nc1nc(Nc2cc3c(cc2OC)CCN(CCOC)CC3)ncc1Cl)S(C)(=O)=O | 7.70 | 6.82 | 6.37
9 | CCN1CCc2ccc(Nc3ncc(Cl)c(N[C@@H]4CCCC[C@H]4NC(C)=O)n3)cc2CC1 | 8.05 | 7.19 | 6.82
10 | COCCN1CCc2ccc(Nc3ncc(Cl)c(N[C@@H]4CCCC[C@H]4N)n3)cc2CC1 | 6.17 | – | –
11 | COCCN1CCc2ccc(Nc3ncc(Cl)c(N[C@@H]4CCCC[C@H]4NS(=O)(=O)CC(F)(F)F)n3)cc2CC1 | 7.51 | 6.52 | 6.08
12 | COCCN1CCc2ccc(Nc3ncc(Cl)c(N[C@@H]4CCCC[C@H]4NS(C)(=O)=O)n3)cc2CC1 | 8.05 | 7.14 | 6.27
13 | COCCN1CCc2ccc(Nc3ncc(Cl)c(N[C@@H]4CCCC[C@H]4NS(=O)(=O)C(C)C)n3)cc2CC1 | 6.89 | – | –
14 | CCN1CCc2ccc(Nc3ncc(Cl)c(N[C@@H]4CCCC[C@H]4NC(=O)N(C)C)n3)cc2CC1 | 6.43 | – | 6.82
15 | COCCN1CCc2ccc(Nc3ncc(Cl)c(N[C@@H]4CCCC[C@H]4NS(=O)(=O)C4CC4)n3)cc2CC1 | 6.96 | – | –
16 | COCCN1CCc2ccc(Nc3ncc(Cl)c(N[C@H]4CC[C@@H](NS(C)(=O)=O)CC4)n3)cc2CC1 | 6.66 | – | –
17 | COCCN1CCc2ccc(Nc3ncc(Cl)c(N[C@H]4CC[C@H](NS(C)(=O)=O)CC4)n3)cc2CC1 | 7.00 | – | –
18 | COc1cc(N2CCOCC2)ccc1Nc1ncc(Cl)c(N[C@@H]2CCCC[C@@H]2NS(C)(=O)=O)n1 (racemic) | 6.48 | – | 6.74
19 | COCCN1CCc2ccc(Nc3ncc(Cl)c(NC4CCCCC4)n3)cc2CC1 | 7.11 | – | 7.11
20 | COc1cc(N2CCOCC2)ccc1Nc1ncc(Cl)c(N[C@H]2CCCC[C@@H]2NS(C)(=O)=O)n1 | < 5.00 | – | 5.20
21 | CCN1CCc2ccc(Nc3ncc(Cl)c(N[C@@H]4CCCC[C@H]4NC(=O)C(F)(F)F)n3)cc2CC1 | 7.59 | 6.70 | 6.13
